# According to PubChem BioAssay (NCI):
# Where “and” joins values, the source holds several entries; their conditions need not be identical. Equal entries are not always repeated.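 96-well plates; 48 h exposure; 5 concentrations. Endpoints by linear interpolation between flanking doses. Not reached: highest tested concentration assigned. GI50 is the concentration that inhibits growth by half. TGI: concentration producing complete growth inhibition.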
# How the values were obtained:
# Experiment in all cases: growth of human tumour cells (NCI), 48 h
# RPMI-8226 leukemia = test system: RPMI-8226 leukemia
# HL-60(TB) leukemia = test system: HL-60(TB) leukemia
# HCT-15 colon = test system: HCT-15 colon
# CCRF-CEM leukemia = test system: CCRF-CEM leukemia
# MCF7 breast = test system: MCF7 breast
# UO-31 renal = test system: UO-31 renal
# MALME-3M melanoma = test system: MALME-3M melanoma
# HOP-62 NSCLC = test system: HOP-62 NSCLC
# NCI-H460 lung = test system: NCI-H460 lung
# OVCAR-4 ovarian = test system: OVCAR-4 ovarian
# U251 CNS = test system: U251 CNS
# RXF 393 renal = test system: RXF 393 renal
# NCI-H522 lung = test system: NCI-H522 lung
# A549 NSCLC = test system: A549 NSCLC
# UACC-62 melanoma = test system: UACC-62 melanoma
# A498 renal = test system: A498 renal
# SF-539 CNS = test system: SF-539 CNS
# M14 melanoma = test system: M14 melanoma
# 786-0 renal = test system: 786-0 renal
# OVCAR-3 ovarian = test system: OVCAR-3 ovarian
# HT29 colon = test system: HT29 colon
# MOLT-4 leukemia = test system: MOLT-4 leukemia
# SK-MEL-28 melanoma = test system: SK-MEL-28 melanoma
# UACC-257 melanoma = test system: UACC-257 melanoma
# EKVX NSCLC = test system: EKVX NSCLC
# HOP-92 NSCLC = test system: HOP-92 NSCLC
# OVCAR-5 ovarian = test system: OVCAR-5 ovarian
# CAKI-1 renal = test system: CAKI-1 renal
# SF-268 CNS = test system: SF-268 CNS
# BT-549 breast = test system: BT-549 breast
# COLO 205 colon = test system: COLO 205 colon
# K-562 leukemia = test system: K-562 leukemia
# OVCAR-8 ovarian = test system: OVCAR-8 ovarian
# SNB-75 CNS = test system: SNB-75 CNS
# NCI-H226 lung = test system: NCI-H226 lung
# HS 578T breast = test system: HS 578T breast
# SF-295 CNS = test system: SF-295 CNS
# IGROV1 ovarian = test system: IGROV1 ovarian
# LOX IMVI melanoma = test system: LOX IMVI melanoma
# HCT-116 colon = test system: HCT-116 colon
# KM12 colon = test system: KM12 colon
# ACHN renal = test system: ACHN renal
# NCI-H23 lung = test system: NCI-H23 lung
# SK-MEL-2 melanoma = test system: SK-MEL-2 melanoma
# T-47D breast = test system: T-47D breast
# NCI/ADR-RES ovarian = test system: NCI/ADR-RES ovarian
# MDA-MB-231 breast = test system: MDA-MB-231 breast
# SK-OV-3 ovarian = test system: SK-OV-3 ovarian
# SN12C renal = test system: SN12C renal
# SR leukemia = test system: SR leukemia
# DU-145 prostate = test system: DU-145 prostate
# MDA-MB-435 = test system: MDA-MB-435
# SNB-19 CNS = test system: SNB-19 CNS
# SW-620 colon = test system: SW-620 colon
smiles,measurement,setting,value
Nc1ccn([C@@H]2O[C@H](COP(=O)(O)O[C@@H]3C[C@H](n4cc(F)c(=O)[nH]c4=O)O[C@@H]3COP(=O)(O)O[C@@H]3C[C@H](n4cc(F)c(=O)[nH]c4=O)O[C@@H]3COP(=O)(O)O[C@@H]3C[C@H](n4cc(F)c(=O)[nH]c4=O)O[C@@H]3COP(=O)(O)O[C@@H]3C[C@H](n4cc(F)c(=O)[nH]c4=O)O[C@@H]3COP(=O)(O)O[C@@H]3C[C@H](n4cc(F)c(=O)[nH]c4=O)O[C@@H]3COP(=O)(O)O[C@@H]3C[C@H](n4cc(F)c(=O)[nH]c4=O)O[C@@H]3COP(=O)(O)O[C@@H]3C[C@H](n4cc(F)c(=O)[nH]c4=O)O[C@@H]3COP(=O)(O)O[C@@H]3C[C@H](n4cc(F)c(=O)[nH]c4=O)O[C@@H]3COP(=O)(O)O[C@@H]3C[C@H](n4cc(F)c(=O)[nH]c4=O)O[C@@H]3COP(=O)(O)O[C@@H]3C[C@H](n4cc(F)c(=O)[nH]c4=O)O[C@@H]3COP(=O)(O)OCCOCCOCCOCCOCCOCCO)[C@H](O)C2O)c(=O)n1 (stereo not given in full),GI50,RPMI-8226 leukemia,0.332 µM and 1.71 µM
same,TGI,RPMI-8226 leukemia,21.1 µM and > 100 µM
same,TGI,HL-60(TB) leukemia,21.1 µM and > 100 µM
same,GI50,HCT-15 colon,0.697 µM and 0.179 µM
same,TGI,HCT-15 colon,21.1 µM and > 100 µM
same,GI50,CCRF-CEM leukemia,0.0101 µM and 0.0175 µM
same,TGI,CCRF-CEM leukemia,21.1 µM and > 100 µM
same,GI50,MCF7 breast,0.00211 µM
same,TGI,MCF7 breast,21.1 µM and > 100 µM
same,GI50,UO-31 renal,0.00659 µM
same,TGI,UO-31 renal,6.57 µM and 7.3 µM
same,GI50,MALME-3M melanoma,2.37 µM and 11.8 µM
same,TGI,MALME-3M melanoma,21.1 µM and > 100 µM
same,GI50,HOP-62 NSCLC,0.00841 µM
same,TGI,HOP-62 NSCLC,21.1 µM and > 100 µM
same,GI50,NCI-H460 lung,0.00211 µM
same,TGI,NCI-H460 lung,21.1 µM and > 100 µM
same,GI50,OVCAR-4 ovarian,> 21.1 µM and 89.5 µM
same,TGI,OVCAR-4 ovarian,> 100 µM
same,GI50,U251 CNS,0.0101 µM
same,TGI,U251 CNS,21.1 µM and > 100 µM
same,GI50,RXF 393 renal,0.846 µM and 0.684 µM
same,TGI,RXF 393 renal,21.1 µM and 70.4 µM
same,TGI,NCI-H522 lung,21.1 µM and > 100 µM
same,GI50,A549 NSCLC,0.00284 µM
same,TGI,A549 NSCLC,21.1 µM and > 100 µM
same,GI50,UACC-62 melanoma,0.00557 µM and 0.0279 µM
same,GI50,A498 renal,0.0204 µM and 0.0631 µM
same,TGI,A498 renal,21.1 µM and > 100 µM
same,GI50,SF-539 CNS,0.00565 µM
same,TGI,SF-539 CNS,21.1 µM and > 100 µM
same,GI50,M14 melanoma,0.00911 µM and 0.0126 µM
same,TGI,M14 melanoma,2.56 µM and 4.9 µM
same,GI50,786-0 renal,0.00777 µM and 0.0131 µM
same,TGI,786-0 renal,21.1 µM and > 100 µM
same,GI50,OVCAR-3 ovarian,> 100 µM
same,TGI,OVCAR-3 ovarian,> 100 µM
same,GI50,HT29 colon,0.0171 µM
same,TGI,HT29 colon,21.1 µM and > 100 µM
same,GI50,MOLT-4 leukemia,0.0246 µM and 0.0443 µM
same,TGI,MOLT-4 leukemia,21.1 µM and > 100 µM
same,TGI,SK-MEL-28 melanoma,21.1 µM and > 100 µM
same,GI50,UACC-257 melanoma,0.11 µM and 0.062 µM
same,TGI,UACC-257 melanoma,21.1 µM and > 100 µM
same,TGI,EKVX NSCLC,> 100 µM
same,GI50,HOP-92 NSCLC,3.86 µM and 14.1 µM
same,TGI,HOP-92 NSCLC,21.1 µM and > 100 µM
same,GI50,OVCAR-5 ovarian,> 100 µM
same,TGI,OVCAR-5 ovarian,> 100 µM
same,GI50,CAKI-1 renal,0.00832 µM
same,TGI,CAKI-1 renal,21.1 µM and > 100 µM
same,GI50,SF-268 CNS,0.00514 µM
same,TGI,SF-268 CNS,21.1 µM and > 100 µM
same,GI50,BT-549 breast,0.674 µM and 0.568 µM
same,TGI,BT-549 breast,21.1 µM and > 100 µM
same,GI50,COLO 205 colon,0.00973 µM
same,TGI,COLO 205 colon,21.1 µM and > 100 µM
same,GI50,K-562 leukemia,0.489 µM and 0.0858 µM
same,TGI,K-562 leukemia,21.1 µM and > 100 µM
same,GI50,OVCAR-8 ovarian,0.0132 µM
same,TGI,OVCAR-8 ovarian,21.1 µM and > 100 µM
same,GI50,SNB-75 CNS,4.33 µM and 10.3 µM
same,TGI,SNB-75 CNS,21.1 µM and > 100 µM
same,GI50,NCI-H226 lung,9.21 µM and 24.6 µM
same,TGI,NCI-H226 lung,21.1 µM and > 100 µM
same,GI50,HS 578T breast,> 100 µM
same,TGI,HS 578T breast,> 100 µM
same,GI50,SF-295 CNS,0.00328 µM
same,TGI,SF-295 CNS,21.1 µM and > 100 µM
same,GI50,IGROV1 ovarian,1.63 µM and 1.45 µM
same,TGI,IGROV1 ovarian,21.1 µM and > 100 µM
same,GI50,LOX IMVI melanoma,0.0054 µM
same,TGI,LOX IMVI melanoma,21.1 µM and > 100 µM
same,GI50,HCT-116 colon,0.013 µM
same,TGI,HCT-116 colon,21.1 µM and > 100 µM
same,GI50,KM12 colon,0.178 µM
same,TGI,KM12 colon,21.1 µM
same,GI50,ACHN renal,0.00745 µM
same,TGI,ACHN renal,21.1 µM and > 100 µM
same,GI50,NCI-H23 lung,0.0255 µM and 0.0445 µM
same,TGI,NCI-H23 lung,21.1 µM and > 100 µM
same,TGI,SK-MEL-2 melanoma,> 100 µM
same,TGI,T-47D breast,21.1 µM and > 100 µM
same,GI50,NCI/ADR-RES ovarian,0.0146 µM and 0.0121 µM
same,TGI,NCI/ADR-RES ovarian,21.1 µM and > 100 µM
same,TGI,MDA-MB-231 breast,21.1 µM and > 100 µM
same,GI50,SK-OV-3 ovarian,0.011 µM and 0.0185 µM
same,TGI,SK-OV-3 ovarian,21.1 µM and > 100 µM
same,GI50,SN12C renal,0.0124 µM
same,TGI,SN12C renal,21.1 µM
same,GI50,SR leukemia,0.621 µM
same,TGI,SR leukemia,21.1 µM and > 100 µM
same,GI50,DU-145 prostate,0.0185 µM and 0.0254 µM
same,TGI,DU-145 prostate,21.1 µM and > 100 µM
same,GI50,MDA-MB-435,1.28 µM and 0.233 µM
same,TGI,MDA-MB-435,21.1 µM and > 100 µM
same,GI50,SNB-19 CNS,0.0721 µM and 0.0219 µM
same,TGI,SNB-19 CNS,21.1 µM and > 100 µM
same,GI50,SW-620 colon,4.23 µM and 2.6 µM
same,TGI,SW-620 colon,21.1 µM and > 100 µM
